Where two headings read alike, the source gives them in different places.
What was measured:
[1] = tested on: green peach aphid (Myzus persicae); type: in vivo
Description: To produce a suitable preparation of active compound, 1 part by weight of active compound is mixed with the stated amounts of solvent and emulsifier, and the concentrate is diluted with emulsifier-containing water to the desired concentration.
Cabbage leaves (Brassica oleracea) which are heavily infested by the green peach aphid (Myzus persicae) are treated by being dipped into the preparation of active compound of the desired concentration.
After the desired period of time, the kill in % is determined. 100% means that all aphids have been killed; 0% means that none of the aphids have been killed. The determined kill rates are entered into Colby's formula.

[2] = tested on: caterpillars of the diamond back moth (Plutella xylostella, sensitive strain); conditions: in vivo
Description: After the desired period of time, the kill in % is determined. 100% means that all caterpillars have been killed; 0% means that none of the caterpillars have been killed. The determined kill rates are entered into Colby's formula.

Structure (SMILES): O=[N+]([O-])/N=C1\NCCN1Cc1ccc(Cl)nc1 [Imidacloprid, imidacloprid]
- Mortality in % after 1^d ([1]; in vivo): 45%
- Mortality in % after 1^d [2]: 40%

Structure (SMILES): CN/C(=N\[N+](=O)[O-])NCc1cnc(Cl)s1 [Clothianidin, clothianidin]
- Mortality in % after 1^d ([1]; 0.8 ppm, active compound alone): 40%
